The values that follow come from article PMC4240668 (PLoS ONE, 2014).

Entries after “also recorded” stand apart in the source; their conditions may differ. Read-outs that look alike come from different tables or passages of the source. No end group written: not given here.

Series [1] deals with differentiated Caco-2 monolayer. Put plainly: Identification of translocated peptides in basal medium of Caco-2 monolayers by MALDI-TOF-MS. As to conditions: Caco-2 monolayer incubated apically with 32 µmol/L PF-488 labeled parent peptide, 37°C.
Procedure: (§1) Cells were pre-incubated with transport medium (Hank's Balanced Salt Solution (HBSS) with Ca^2+, Mg^2+ and glucose) (Invitrogen) (200 µl in the apical, 900 µl in the basal compartment of the transwell system) for 30 min at 37°C. Methyl-β-cyclodextrin (MβCD; Sigma-Aldrich, Munich, Germany; 2 mmol/L) was added to the apical compartment to inhibit endocytosis. Then, PF–488 labeled GP dissolved in 100 µl transport medium were added on the apical side of the cells at a total concentration of 32 µmol/L or 145 µmol/L. Cells were incubated at 37°C for 3 or 24 h. Thereafter, media from both compartments (apical and basal) were removed to be further analyzed by fluorescence spectroscopy and MALDI–TOF–MS; cell inserts were prepared for flow cytometry and confocal laser scanning microscopy.
(§2) For mass spectrometric analyses peptides were concentrated and desalted using C18 ZipTips (Millipore). MALDI–TOF–MS analysis of the apical and basal cell culture media was performed using a Bruker Ultraflex I instrument (Bruker Daltonics, Bremen, Germany) with 2,5-dihydroxybenzoic acid (DHB)/methylenbisphosphonic acid as matrix. For calibration an external standard peptide mixture (Bruker Daltonics) was used. MS-spectra were processed by the software FlexAnalysis (version 3.0, Bruker Daltonics). The peptide sequences of P56–68 and P31–43 as well as fragments of these peptides were deduced from the detected molecular mass considering the H^+, Na^+ and K^+ adducts. Masses were assigned to peptides allegeable to cleavage of GP. Detected GP were quantified by calculating the relative area under the curve (AUC). The values of three independent experiments are given as mean values.
Series [2] concerns immature dendritic cells (iDC). Put plainly: Cytokine secretion (IL-8, TNF-α) by immature dendritic cells, sandwich ELISA. The format is cell-based. Conditions: for Secretion of IL-8 and TNF-α by dendritic cells: iDC from CD14+ PBMCs, 100 µg/mL peptide in RPMI + 2% human serum, 24 h, sandwich ELISA, three experiments (Fig. S1). The protocol: Supplementary file pone.0113932.s001.tiff: Figure S1 Effect of P31–43 and P56–68 on cytokine secretion (IL-8, TNF-α) by immature dendritic cells (iDC). iDC were generated from CD14+ PBMCs by a 5-day incubation with 500 U/mL IL-4 and 1000 U/mL GM-CSF in RPMI media with 10% human serum. Then, iDC were incubated with 100 µg/mL P31–43 or P56–68 in RPMI+2% human serum for 24 h. IL-8 (A) and TNF-α (B) secretion in the media were analyzed by a commercially available sandwich ELISA (R&D, Wiesbaden, Germany). Each experiment was performed three times; data are given as mean ± SD; only significant differences are shown as *p<0.05, **p<0.01. (TIFF) Click here for additional data file.
Supplementary file pone.0113932.s002.tiff: Figure S2 Effect of the basal media - after incubation of a Caco-2 monolayer with P31–43 and P56–68 - on cytokine secretion (IL-8, TNF-α) by immature dendritic cells (iDC). iDC were generated from CD14+ PBMCs by 5-day incubation with 500 U/mL IL-4 and 1000 U/mL GM-CSF in RPMI media with 10% human serum. iDC were incubated 24 h with basal media of Caco-2 monolayers after they had been exposed to PF-488 labeled P31–43 and P56–68 on the apical side of the cells. IL-8 (A) and TNF-α (B) secretion in the media was analyzed by sandwich ELISA. Each experiment was performed three times; data are given as mean ± SD. (TIFF) Click here for additional data file.
In general terms: In an ELISA, binding on a coated surface is turned into a signal by an enzyme label.

Series [3] relates to Caco-2 cells (brush border membrane peptidases APN, CPP, DPP IV). The series can be described thus: Digestion of gliadin peptides at the apical side of Caco-2 monolayers, MALDI-TOF-MS relative AUC. As to conditions: PF-488 labeled peptide at apical side of Caco-2 monolayer, HBSS, 37°C, mean of three independent experiments.
Procedure: as §1, §2
Series [4] in a line: basal medium (HBSS transport medium) of Caco-2 monolayer after apical peptide addition. As to conditions: human, 37°C, up to 24 h.
A short description of series [5]: basal medium of differentiated Caco-2 monolayer (peptide added apically) in transport medium (HBSS). As to conditions: human, 37°C; for fragment found: up to 3 h.
Series [6] is described as follows: apical medium of differentiated Caco-2 monolayer in transport medium (HBSS with Ca2+, Mg2+ and glucose). As to conditions: human, 37°C, up to 24 h. For orientation: Caco-2 cells form a polarised layer with tight junctions and transporters.
Series [7] in a line: apical medium (HBSS transport medium) of differentiated Caco-2 monolayer in transwell. As to conditions: human, 37°C, up to 24 h.
A short description of series [8]: basal medium of differentiated Caco-2 monolayer with MβCD in the apical compartment. As to conditions: human, 37°C, up to 24 h.
Series [9] relates to Caco-2 cells (brush border membrane peptidases APN, CPP, DPP IV).
Procedure: as §1, §2

In the case of LGQQQPFPPQQP [P31–42], in series [1] (3 h), the “Peptide detected in basal media after 3 h” value is “detected”. Besides, the “Peptide detected in basal media after 24 h” value in series [1] is on record as “detected”.

Turning to LGQQQPFPPQQPY [P31–43], in series [2], the “Secretion of IL-8 and TNF-α by dendritic cells” value is reported as “increased secretion”. Moreover, the “Cytokine production by iDC with basal culture media of peptide-exposed Caco-2 cells” value in series [2] (iDC incubated 24 h with basal media of Caco-2 monolayers exposed apically to PF-488 labeled peptide, ELISA (Fig. S2)) is “did not significantly increase”. The “Peptide remaining in the apical compartment still intact” value in [3] (3 h, MALDI-TOF-MS after C18 ZipTip, relative AUC) turned out to be 76%. Also, the “C-terminal tyrosine residue cleaved (presumably by carboxypeptidase P)” value in series [3] (24 h, MALDI-TOF-MS relative AUC) turned out to be 83%.

Regarding LQLQPFPQPQLP [P56–67], the “Peptide detected in basal media after 24 h” value in series [1] is “found”.

On to PF-LGQQQPFPPQQPY, for which the cleaved bond entry was “P-Y, 3 h” in [4] and “P-Y, major, 3 h; also recorded: L-G, 3 h; also recorded: G-Q, 3 h; also recorded: P-F, minor, 3 h” in [6]. The fragment found result in series [5] is given as “PF-LGQQQPFPPQQP, 3 h; also recorded: PF-LGQQQP, 3 h; also recorded: PF-LGQQ, 3 h; also recorded: PF-LGQ, 3 h”; in series [7], “QQPFPPQQP, minor”.

Regarding PF-LQLQPFPQPQLPY, the fragment found entry is “PF-LQ, 3 h” in [5]; “PF-LQLQPFPQPQ, 24 h; also recorded: PF-LQLQP, 24 h; also recorded: PF-LQL, 24 h; also recorded: PF-L, 24 h; also recorded: PF-LQLQPFPQPQLP, 24 h” in series [8]; “QLQPFPQPQLP, minor, 3 h; also recorded: LQPFPQPQLP, minor, 3 h; also recorded: QPFPQPQLP, minor, 3 h” in [7]. Moreover, the cleaved bond entry was “P-Y, major, 24 h” in [5] (up to 24 h) and “P-Y, major, 3 h; also recorded: L-Q, minor, 3 h; also recorded: Q-L, minor, 3 h; also recorded: P-F, minor, 3 h” in series [6].

For LQLQPFPQPQLPY [P56–68], the “Secretion of IL-8 and TNF-α by dendritic cells” value in series [2] is “no effect”. Moreover, the “C-terminal tyrosine residue cleaved (presumably by carboxypeptidase P)” value in [9] was 72%.
